Structures can show the parent of a compound that is named as a salt.

One series has as its system Phosphorylated eIF4E. Put plainly: Intracellular peIF4E signaling assay. The conditions noted are these: 2 h; two hours incubation at 37° C.; read-out: peIF4E signaling cell assay IC50. In kind it is cell-based. The procedure:
Phosphorylated eIF4E was determined using CisBio peIF4E assay kit (CisBio, catalog number 64EF4PEG). The cells were plated in a 96-well cell culture plate in a volume of 90 μL, and the number of cells per well was 5*10^4. The compounds (10×) were subjected to 3-fold serial dilution, added to the cell plate in a volume of 10 μL with the final DMSO concentration being 1%, and incubated at 37° C. for two hours. The cell plate was centrifuged at 300 g for 5 minutes, and the cell supernatant was carefully removed. The cell plate was immediately added with 50 μL of cell lysis buffer […] and incubated at 25° C. with shaking for at least 30 minutes. After homogenization by pipetting, 16 μL of cell lysate was transferred from the 96-well cell culture plate to a 384-well small-volume microwell plate. According to the kit instruction, an antibody mixture solution was prepared with a detection buffer, and was added in a volume of 4 μL to the 384-well small-volume microwell plate containing the cell lysate. The plate was covered with a plate sealer, incubated overnight at 25° C., and was read for fluorescence emission at two different wavelengths (665 nm and 615 nm) on the EnVision microplate reader counter. The emission ratio was imported into a GraphPadPrism software to fit the compound concentration (IC50) required for 50% inhibition of enzyme activity.
In this respect, IC50 values which are less than 0.05 μM were marked as “+++”, which are from 0.05 to 1.0 μM were marked as “++”, and which are greater than 1.0 and up to 100 μM were marked as “+”, and NA meant “not detected”.

The next series relates to PD-1. Put plainly: Expression of immune checkpoint PD-1 on cell surface of PHA-activated PBMC (flow cytometry). In kind it is cell-based, human. The conditions noted are these: 5 μg/ml PHA, 0.01-10 μM, 48 hours. The procedure: (§1) Gradient centrifugation was used to extract PBMC cells from peripheral blood of healthy people. The PBMC cells were activated with 5 μg/ml PHA (Sigma), and treated with different concentrations of compounds (0, 0.01, 0.1, 1, 3, 10 μM). After 48 hours, the cells and culture supernatants were collected, respectively. Flow cytometry was used to detect the expression of immune checkpoints, PD-1, Tim-3 and Lag-3 on cell surface, and to detect the secretion level of various cytokines (IL-6, IL-10 and TNF-α) in the cell culture supernatants.
Background: Flow cytometry measures light scatter and fluorescence of single cells or particles in a stream.

The next series relates to Tim-3. Description: Expression of immune checkpoint Tim-3 on cell surface of PHA-activated PBMC (flow cytometry). In kind it is cell-based, human. The conditions noted are these: 5 μg/ml PHA, 0.01-10 μM, 48 hours. The protocol:
as §1

Another series relates to Lag-3. Put plainly: Expression of immune checkpoint Lag-3 on cell surface of PHA-activated PBMC (flow cytometry). In kind it is cell-based, human. The following applies: 5 μg/ml PHA, 0.01-10 μM, 48 hours. The procedure: as §1
The next series has as its system IL-10. Description: Secretion level of IL-10 in PHA-activated PBMC culture supernatants. In kind it is cell-based, human. The following applies: 5 μg/ml PHA, 0.01-10 μM, 48 hours. The protocol: as §1
In another series the test system is IL-6. Description: Secretion level of IL-6 in PHA-activated PBMC culture supernatants. In kind it is cell-based, human. The conditions noted are these: 5 μg/ml PHA, 0.01-10 μM, 48 hours. The procedure: as §1
Another series relates to TNF-α. Put plainly: Secretion level of TNF-α in PHA-activated PBMC culture supernatants. In kind it is cell-based, human. The following applies: 5 μg/ml PHA, 0.01-10 μM, 48 hours. The protocol: as §1
A short description of series [1]: Pharmacokinetic study in rats. In kind it is in vivo. The following applies: male, SD, plasma, rat. The procedure:
In the examples, rat pharmacokinetic tests were performed for compounds 2 and 26 to illustrate their pharmacokinetic properties in rats.
Formulation of Liquors of Compound 2: […]
Experimental Method for Pharmacokinetic Study in Rats
(§2) Six SD rats, male, weighing 180-220 g, fasting for 12 hours, were randomly divided into 2 groups, 3 in each group. The animals in group A were intragastrically administrated with the compound liquor at a dose of 10 mg/kg; the animals in group B were intravenously administrated with the compound liquor via tails at a dose of 3 mg/kg. Blank blood was harvested before administration; about 100 μL of venous blood was harvested at different time points after administration, placed in a test tube added with heparin and centrifuged, and about 50 μL of blood plasma was collected and stored at −20° C. for testing.
Formulation of Liquors of Compound 26: […]
Formulation of solution for intravenous administration: compound 26 was dissolved in a solution of 5% DMSO+10% Solutol HS15+85% (20% HP-(3-CD physiological saline).
Formulation of suspension for intragastric administration: compound 26 was dissolved in a solution of 5% DMSO+10% Solutol HS15+85% (20% HP-(3-CD physiological saline).
Administration dosage of compound 26: 1 mg/kg for intravenous injection, 3 mg/kg for intragastric administration.
as §2, with “of 3” for “of 10”, “of 1” for “of 3”

The next series has as its target MNK1 (Homo sapiens, UniProt Q9BUB5). Put plainly: MNK biological enzyme assay (HTRF kinase assay), MNK1. In kind it is biochemical. Details: purchased ThermoFisher PV6023. The conditions noted are these: 3 ng/ul MNK1, 1 μM STK1 peptide, 100 μM ATP. The protocol:
(§3) A HTRF kinase assay kit (Cisbio, catalog number 62ST1PEB) was used to determine the MNK inhibitory activity of the compounds. All kinase reactions were performed in the reaction buffer (provided in the kit). The final MNK1 reaction involved 3 ng/ul recombinant MNK1 (ThermoFisher, PV6023), 1 μM MNK substrate peptide STK1 (provided in the kit), 100 μM ATP, and different concentrations of the inhibitory compounds of interest. The final MNK2 reaction involved 1 ng/μl recombinant MNK2 (ThermoFisher, PV5607), 1 μM MNK substrate peptide STK1 (provided in the kit), 100 μM ATP, and different concentrations of the inhibitory compounds of interest. The final DMSO concentration in each of the reactions was 1%.
(§4) The kinase reaction was performed in a final volume of 10 μl in a 384-well white flat-bottomed polystyrene plate. The MNK1/2 enzyme was pre-incubated with the compound and substrate peptide for 5 minutes, and then ATP was added thereto. After addition of ATP, the kinase reaction was incubated at 25° C. for 120 minutes or 60 minutes. The reaction was subsequently terminated by adding 5 μl of EU3+ substrate antibody detection reagent and 5 μl of XL665 detection reagent, and incubating for another 60 minutes. The luminescent signal was detected with an EnVision microplate reader counter (Perkin Elmer), and the signal from 10-point dilution series of the compounds was used to calculate the compound concentration (IC50) required to achieve 50% inhibition of enzyme activity.
(§5) In this respect, IC50 values which are less than 0.01 μM were marked as “+++”, which are from 0.01 to 0.1 μM were marked as “++”, and which are greater than 0.1 and up to 10.0 μM were marked as “+”, and NA meant “not detected”.
In general terms: Time-resolved FRET reads energy transfer from a long-lived donor to a nearby acceptor.

The next series addresses MNK2 (Homo sapiens, UniProt Q9HBH9). Description: MNK biological enzyme assay (HTRF kinase assay), MNK2. In kind it is biochemical. Details: purchased ThermoFisher PV5607. The conditions noted are these: 1 ng/μl MNK2, 1 μM STK1 peptide, 100 μM ATP. The procedure:
as §3, §4, §5

Sequence of MNK2 (Q9HBH9 whole entry): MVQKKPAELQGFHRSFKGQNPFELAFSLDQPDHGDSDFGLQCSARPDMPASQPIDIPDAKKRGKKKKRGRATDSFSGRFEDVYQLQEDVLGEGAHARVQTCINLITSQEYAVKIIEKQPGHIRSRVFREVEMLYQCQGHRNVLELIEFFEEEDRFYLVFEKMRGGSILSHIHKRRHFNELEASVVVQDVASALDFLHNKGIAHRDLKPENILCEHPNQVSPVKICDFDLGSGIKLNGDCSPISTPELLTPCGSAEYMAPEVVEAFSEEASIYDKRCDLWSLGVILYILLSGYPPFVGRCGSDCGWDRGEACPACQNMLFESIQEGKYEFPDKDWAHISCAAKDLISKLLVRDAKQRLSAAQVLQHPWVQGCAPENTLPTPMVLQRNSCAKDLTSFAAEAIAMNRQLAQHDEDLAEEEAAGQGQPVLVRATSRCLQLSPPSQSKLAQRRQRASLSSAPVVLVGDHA
Sequence of MNK1 (Q9BUB5 whole entry): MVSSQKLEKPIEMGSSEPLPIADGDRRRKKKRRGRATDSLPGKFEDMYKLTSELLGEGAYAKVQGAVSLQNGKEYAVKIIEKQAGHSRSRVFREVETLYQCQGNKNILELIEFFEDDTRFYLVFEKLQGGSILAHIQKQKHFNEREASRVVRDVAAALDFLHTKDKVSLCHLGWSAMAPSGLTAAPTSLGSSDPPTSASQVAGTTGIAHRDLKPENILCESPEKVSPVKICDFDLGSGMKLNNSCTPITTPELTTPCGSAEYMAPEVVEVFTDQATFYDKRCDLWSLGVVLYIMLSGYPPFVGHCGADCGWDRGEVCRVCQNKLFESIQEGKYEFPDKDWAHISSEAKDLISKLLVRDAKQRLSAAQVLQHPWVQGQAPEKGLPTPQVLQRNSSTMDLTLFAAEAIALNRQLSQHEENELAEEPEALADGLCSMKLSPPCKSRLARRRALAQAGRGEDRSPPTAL

Turning to `Cc1c2c(c(=O)n3c1C(=O)NC31CCCCC1)Nc1cc(NC(=O)C3CC3)ncc1C2` [Compound 26], the IC50 (usually the concentration needed to halve the response being measured) in the series on Phosphorylated eIF4E was below 0.05 µM. Also, the “inhibition of PD-1 expression” value in the series on PD-1 was “significantly inhibited”. In addition, the “inhibition of Tim-3 expression” value in the series on Tim-3 is listed as “significantly inhibited”. For the same molecule, the “inhibition of Lag-3 expression” value in the series on Lag-3 is listed as “significantly inhibited”. Moreover, the “inhibition of secretion of IL-10” value with IL-10 was “significantly inhibited”. In addition, the “inhibition of secretion of IL-6” value with IL-6 is “significantly inhibited”. In the series with TNF-α, the “inhibition of secretion of TNF-α” value was “significantly inhibited”. Further, in series [1] (iv, 1 mg/kg), the AUC(0-inf) (commonly the area under the concentration-time curve extrapolated to infinity) came out at 632 ng·h/mL; the AUC(0-t) (in general, exposure summed from dosing to a finite time, without extrapolation to infinity) is 619 ng·h/mL; the clearance (as a rule, the volume of plasma or blood freed of the substance per unit of time) is 27.2 mL/min/kg; the half-life (in general, the time needed for the level to fall by half in the phase considered) is 3.73 h. Also, the Vd in [1] (iv, i.v., 1 mg/kg, read-out: Vz) turned out to be 4.14 L/kg. Also, the bioavailability (in general, the share of a dose that reaches the circulation, judged against a reference dose that is usually intravenous) in series [1] (oral, p.o. 3 mg/kg vs i.v. 1 mg/kg) was 21.7%. Further, in series [1] (po, 3 mg/kg), the AUC(0-inf) was found to be 391 ng·h/mL, the AUC(0-t) worked out at 402 ng·h/mL, the highest level (Cmax) was 45.2 ng/mL and the time of peak concentration (Tmax) (commonly the time from dosing to the highest level) worked out at 1.75 h. In addition, the half-life in series [1] (po, 3 mg/kg) is 6.97 h. In addition, the IC50 against MNK1 is below 0.01 µM. The molecule further showed an IC50 against MNK2 below 0.01 µM.
For `CC(=O)Nc1cc2c(cn1)Cc1c(C)c3n(c(=O)c1N2)C1(CCCCC1)NC3=O` [Compound 21, 12(N-methyl-1,5-2,5,6,11-tetrahydro-1H-spiro[cyclohexane-1-imidazo[1,5-6]pyrido[3,4-b]naphthyridine1.6][8]′-yl)acetamide], the “inhibition of PD-1 expression” value in the series with PD-1 is “significantly inhibited”. Also, the “inhibition of Tim-3 expression” value with Tim-3 is “significantly inhibited”. For the same molecule, in the series on Lag-3, the “inhibition of Lag-3 expression” value is recorded as “significantly inhibited”. The “inhibition of secretion of IL-10” value with IL-10 was “significantly inhibited”. In addition, the “inhibition of secretion of IL-6” value with IL-6 is given as “significantly inhibited”. Besides, the “inhibition of secretion of TNF-α” value in the series on TNF-α was “significantly inhibited”. Also, the IC50 on MNK1 and against MNK2 was below 0.01 µM throughout.
With `CNc1cc2c(cn1)Cc1c(C)c3n(c(=O)c1N2)C1(CCCCC1)NC3=O` [Compound 22, 12′-methyl-8′-(methylamino)-6′,11′-dihydro-1′H-spiro[cyclohexane-1,3′-imidazo[1′,5′:1,6]pyrido[3,4-b][1,6]naphthopyridine]-1′,5′(2′H)-dione hydrochloride], the results for the IC50 in the series on Phosphorylated eIF4E, at MNK1 and on MNK2 were below 0.05 µM, 0.01 to 0.1 µM and 0.01 to 0.1 µM, respectively.
Consider `Cc1c2n(c(=O)c3[nH]c4cc(N)ncc4c(=O)c13)C1(CCCC1)NC2=O` [Compound 5, 8-amino-12-methyl-2H-spiro[cyclopentane-1,3-imidazo[1,5:1,6]pyridine[3,4-b][1,6]naphthyridine]-1,5,11(6H)-trione], for which the IC50 is below 0.05 µM in the series on Phosphorylated eIF4E, below 0.01 µM against MNK1 and below 0.01 µM against MNK2.
As for `Cc1c2c(c(=O)n3c1C(=O)NC3(C)c1cccc(F)c1)Nc1cc(N)ncc1C2` (stereo not shown) [Compound 10, hydrochloride], the results for the IC50 in the series with Phosphorylated eIF4E, at MNK1 and against MNK2 were 0.05 to 1 µM, 0.01 to 0.1 µM and 0.01 to 0.1 µM, respectively.
